Several values for one entry are separate records, joined by “and”; a condition that tells them apart may be missing. Identical values can stand only once.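 Test compounds were applied to cells in 96-well plates for 48 hours at 5 doses. GI50 is the concentration that inhibits growth by half. At the TGI there is no net growth.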
Tests used:
Experiment in all cases: DTP human tumour cell line panel, 48 h
DU-145 prostate = test system: DU-145 prostate
CAKI-1 renal = test system: CAKI-1 renal
BT-549 breast = test system: BT-549 breast
M14 melanoma = test system: M14 melanoma
SK-MEL-2 melanoma = test system: SK-MEL-2 melanoma
HOP-92 NSCLC = test system: HOP-92 NSCLC
OVCAR-3 ovarian = test system: OVCAR-3 ovarian
TK-10 renal = test system: TK-10 renal
SNB-75 CNS = test system: SNB-75 CNS
SF-295 CNS = test system: SF-295 CNS
KM12 colon = test system: KM12 colon
A498 renal = test system: A498 renal
CCRF-CEM leukemia = test system: CCRF-CEM leukemia
SW-620 colon = test system: SW-620 colon
A549 NSCLC = test system: A549 NSCLC
SF-268 CNS = test system: SF-268 CNS
U251 CNS = test system: U251 CNS
EKVX NSCLC = test system: EKVX NSCLC
T-47D breast = test system: T-47D breast
PC-3 prostate = test system: PC-3 prostate
SK-OV-3 ovarian = test system: SK-OV-3 ovarian
K-562 leukemia = test system: K-562 leukemia
COLO 205 colon = test system: COLO 205 colon
NCI-H226 lung = test system: NCI-H226 lung
NCI-H522 lung = test system: NCI-H522 lung
RXF 393 renal = test system: RXF 393 renal
ACHN renal = test system: ACHN renal
HL-60(TB) leukemia = test system: HL-60(TB) leukemia
MDA-MB-231 breast = test system: MDA-MB-231 breast
MCF7 breast = test system: MCF7 breast
HS 578T breast = test system: HS 578T breast
HCT-116 colon = test system: HCT-116 colon
786-0 renal = test system: 786-0 renal
MALME-3M melanoma = test system: MALME-3M melanoma
UACC-257 melanoma = test system: UACC-257 melanoma
SK-MEL-5 melanoma = test system: SK-MEL-5 melanoma
LOX IMVI melanoma = test system: LOX IMVI melanoma
IGROV1 ovarian = test system: IGROV1 ovarian
UACC-62 melanoma = test system: UACC-62 melanoma
SNB-19 CNS = test system: SNB-19 CNS
MDA-MB-435 = test system: MDA-MB-435
OVCAR-8 ovarian = test system: OVCAR-8 ovarian
NCI-H460 lung = test system: NCI-H460 lung
SF-539 CNS = test system: SF-539 CNS
HT29 colon = test system: HT29 colon
SN12C renal = test system: SN12C renal
UO-31 renal = test system: UO-31 renal
HOP-62 NSCLC = test system: HOP-62 NSCLC
HCT-15 colon = test system: HCT-15 colon
OVCAR-4 ovarian = test system: OVCAR-4 ovarian
MOLT-4 leukemia = test system: MOLT-4 leukemia
SK-MEL-28 melanoma = test system: SK-MEL-28 melanoma

For `CCN(CC)CCCC(CO)Nc1ccnc2cc(Cl)ccc12` (centres undefined), the GI50 (DU-145 prostate) was greater than 100 µM, the TGI (DU-145 prostate) was greater than 100 µM and the GI50 (CAKI-1 renal) was 32.7 µM and 30.7 µM. The TGI (CAKI-1 renal) was > 100 µM and 85.5 µM, the GI50 (BT-549 breast) was 33.8 µM and 30.8 µM and the TGI (BT-549 breast) was greater than 100 µM. For the same molecule, the GI50 (M14 melanoma) was 16.6 µM and 17 µM, the TGI (M14 melanoma) was 30.9 µM and 31.2 µM and the GI50 (SK-MEL-2 melanoma) was > 100 µM and 90.2 µM. For the same molecule, the TGI (SK-MEL-2 melanoma) was greater than 100 µM, the GI50 (HOP-92 NSCLC) was 22.6 µM and 20.5 µM and the TGI (HOP-92 NSCLC) was > 100 µM and 88.5 µM. For the same molecule, the GI50 (OVCAR-3 ovarian) was 28.3 µM and 32.6 µM, the TGI (OVCAR-3 ovarian) was 77.1 µM and > 100 µM and the GI50 (TK-10 renal) was 46 µM and 32.4 µM. For the same molecule, the TGI (TK-10 renal) was greater than 100 µM, the GI50 (SNB-75 CNS) was greater than 100 µM and the TGI (SNB-75 CNS) was greater than 100 µM. The GI50 (SF-295 CNS) was 18.9 µM and 18 µM, the TGI (SF-295 CNS) was 46.6 µM and 45.3 µM and the GI50 (KM12 colon) was 49.1 µM and 66.8 µM. The TGI (KM12 colon) was greater than 100 µM, the GI50 (A498 renal) was > 100 µM and 32.7 µM and the TGI (A498 renal) was greater than 100 µM. The GI50 (CCRF-CEM leukemia) was 45.4 µM and 15 µM, the TGI (CCRF-CEM leukemia) was > 100 µM and 39.8 µM and the GI50 (SW-620 colon) was 50.6 µM and > 100 µM. For the same molecule, the TGI (SW-620 colon) was greater than 100 µM, the GI50 (A549 NSCLC) was 50.9 µM and 73.7 µM and the TGI (A549 NSCLC) was greater than 100 µM. The GI50 (SF-268 CNS) was 64.3 µM and 75.7 µM, the TGI (SF-268 CNS) was greater than 100 µM and the GI50 (U251 CNS) was 67.6 µM and 70.8 µM. For the same molecule, the TGI (U251 CNS) was greater than 100 µM, the GI50 (EKVX NSCLC) was 54.5 µM and 74.2 µM and the TGI (EKVX NSCLC) was greater than 100 µM. The GI50 (T-47D breast) was greater than 100 µM, the TGI (T-47D breast) was greater than 100 µM and the GI50 (PC-3 prostate) was 66.2 µM and 34.4 µM. The TGI (PC-3 prostate) was greater than 100 µM, the GI50 (SK-OV-3 ovarian) was > 100 µM and 91.5 µM and the TGI (SK-OV-3 ovarian) was greater than 100 µM. The GI50 (K-562 leukemia) was 30.4 µM and 36.3 µM, the TGI (K-562 leukemia) was greater than 100 µM and the GI50 (COLO 205 colon) was 39.9 µM and 34.5 µM. The TGI (COLO 205 colon) was greater than 100 µM, the GI50 (NCI-H226 lung) was > 100 µM and 36.5 µM and the TGI (NCI-H226 lung) was > 100 µM and 92.8 µM. For the same molecule, the GI50 (NCI-H522 lung) was 56.9 µM and > 100 µM, the TGI (NCI-H522 lung) was greater than 100 µM and the GI50 (RXF 393 renal) was 35.8 µM and 41.1 µM. For the same molecule, the TGI (RXF 393 renal) was greater than 100 µM, the GI50 (ACHN renal) was > 100 µM and 54.1 µM and the TGI (ACHN renal) was greater than 100 µM. For the same molecule, the GI50 (HL-60(TB) leukemia) was 24.4 µM and 25 µM, the TGI (HL-60(TB) leukemia) was greater than 100 µM and the GI50 (MDA-MB-231 breast) was 70.3 µM and 57.1 µM. The TGI (MDA-MB-231 breast) was greater than 100 µM, the GI50 (MCF7 breast) was 47.9 µM and 56.1 µM and the TGI (MCF7 breast) was greater than 100 µM. The GI50 (HS 578T breast) was > 100 µM and 72.5 µM, the TGI (HS 578T breast) was greater than 100 µM and the GI50 (HCT-116 colon) was 21.9 µM and 26.3 µM. The TGI (HCT-116 colon) was 73.7 µM and 80.1 µM, the GI50 (786-0 renal) was 54.9 µM and 42.3 µM and the TGI (786-0 renal) was greater than 100 µM. For the same molecule, the GI50 (MALME-3M melanoma) was 29.4 µM and 26.5 µM, the TGI (MALME-3M melanoma) was 59.1 µM and 49.9 µM and the GI50 (UACC-257 melanoma) was 18.1 µM and 19.2 µM. For the same molecule, the TGI (UACC-257 melanoma) was 33 µM and 35.2 µM, the GI50 (SK-MEL-5 melanoma) was 20 µM and 18 µM and the TGI (SK-MEL-5 melanoma) was 44.8 µM and 37.6 µM. For the same molecule, the GI50 (LOX IMVI melanoma) was 30.1 µM and 27.6 µM, the TGI (LOX IMVI melanoma) was 59.6 µM and 51.5 µM and the GI50 (IGROV1 ovarian) was greater than 100 µM. The TGI (IGROV1 ovarian) was greater than 100 µM, the GI50 (UACC-62 melanoma) was 22.2 µM and 37.7 µM and the TGI (UACC-62 melanoma) was 49.6 µM and > 100 µM. For the same molecule, the GI50 (SNB-19 CNS) was greater than 100 µM, the TGI (SNB-19 CNS) was greater than 100 µM and the GI50 (MDA-MB-435) was 19.5 µM and 20.5 µM. The TGI (MDA-MB-435) was 42.7 µM and 43.2 µM, the GI50 (OVCAR-8 ovarian) was 38.5 µM and 56.1 µM and the TGI (OVCAR-8 ovarian) was greater than 100 µM. For the same molecule, the GI50 (NCI-H460 lung) was 66.2 µM and 82.7 µM, the TGI (NCI-H460 lung) was greater than 100 µM and the GI50 (SF-539 CNS) was 15.9 µM and 17.3 µM. For the same molecule, the TGI (SF-539 CNS) was 35.4 µM and 35.3 µM, the GI50 (HT29 colon) was 32.2 µM and 64.3 µM and the TGI (HT29 colon) was greater than 100 µM. For the same molecule, the GI50 (SN12C renal) was > 100 µM and 48.5 µM, the TGI (SN12C renal) was greater than 100 µM and the GI50 (UO-31 renal) was greater than 100 µM. For the same molecule, the TGI (UO-31 renal) was greater than 100 µM, the GI50 (HOP-62 NSCLC) was 82.4 µM and 68.2 µM and the TGI (HOP-62 NSCLC) was greater than 100 µM. For the same molecule, the GI50 (HCT-15 colon) was greater than 100 µM, the TGI (HCT-15 colon) was greater than 100 µM and the GI50 (OVCAR-4 ovarian) was > 100 µM and 58.2 µM. For the same molecule, the TGI (OVCAR-4 ovarian) was greater than 100 µM, the GI50 (MOLT-4 leukemia) was 31 µM and 34.3 µM and the TGI (MOLT-4 leukemia) was greater than 100 µM. For the same molecule, the GI50 (SK-MEL-28 melanoma) was 25 µM and > 100 µM and the TGI (SK-MEL-28 melanoma) was 57.5 µM and > 100 µM.

Source: PubChem BioAssay (NCI)
